This is an account of results in paper PMC3565387 (Bioorganic & medicinal chemistry, 2012).

Experiment [1] concerns the target T1, FPR2 (Homo sapiens, UniProt P25090).
T1 sequence (P25090 1-351): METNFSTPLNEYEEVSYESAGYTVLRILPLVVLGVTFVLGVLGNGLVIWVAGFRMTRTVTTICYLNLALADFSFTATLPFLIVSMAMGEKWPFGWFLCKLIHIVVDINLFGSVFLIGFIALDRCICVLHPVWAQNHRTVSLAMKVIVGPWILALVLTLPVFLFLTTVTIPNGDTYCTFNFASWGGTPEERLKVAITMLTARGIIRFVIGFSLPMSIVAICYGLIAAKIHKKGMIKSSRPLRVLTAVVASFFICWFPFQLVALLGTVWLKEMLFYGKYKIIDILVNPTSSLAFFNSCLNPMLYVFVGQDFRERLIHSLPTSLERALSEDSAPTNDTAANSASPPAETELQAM
Description: Ca2+ mobilization in HL-60 cells transfected with FPR2. It is filed as cell-based. As to conditions: HL-60-FPR2 cells; % of response induced by 5 nM WKYMVm.

Experiment [2] concerns the target T2, FPR1 (Homo sapiens, UniProt P21462).
T2 sequence (P21462 1-350): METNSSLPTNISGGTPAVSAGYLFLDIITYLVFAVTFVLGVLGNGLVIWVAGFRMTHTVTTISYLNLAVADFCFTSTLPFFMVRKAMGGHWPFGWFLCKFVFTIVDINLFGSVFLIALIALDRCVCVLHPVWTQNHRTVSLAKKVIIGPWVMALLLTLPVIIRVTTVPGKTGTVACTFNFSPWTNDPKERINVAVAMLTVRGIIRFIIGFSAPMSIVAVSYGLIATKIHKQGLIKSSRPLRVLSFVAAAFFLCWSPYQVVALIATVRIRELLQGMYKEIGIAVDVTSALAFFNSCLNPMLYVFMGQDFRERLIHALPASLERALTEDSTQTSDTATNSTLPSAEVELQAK
The experiment can be described thus: Ca2+ mobilization in HL-60 cells transfected with FPR1. The note with it: HL-60-FPR1 cells; % of response induced by 5 nM fMLF. The class given is cell-based.

Another experiment has as its system human neutrophils. The experiment can be described thus: Ca2+ mobilization in human neutrophils. The class given is cell-based. The note with it: % of response induced by 5 nM fMLF.
A further experiment has as its system FPR2/ALX. As to conditions: read-out: EC50 at FPR2/ALX; endogenous ligand; cited from earlier work.
The target of experiment [3] is T2, FPR1. The experiment can be described thus: PathHunter β-arrestin recruitment in CHO-K1 FPR1 cells. The class given is cell-based. As to conditions: % of response induced by 5 nM WKYMVm.
The target in experiment [4] is T1, FPR2. Description: PathHunter β-arrestin recruitment in CHO-K1 FPR2 cells. The class given is cell-based.

The structures appear in SMILES notation.

Turning to `CCC(C(=O)Nc1ccc(Br)cc1)n1nc(C)cc(Cc2cccc(OC)c2)c1=O` (racemic) [(±)-5b, (±)-N-(4-Bromophenyl)-2-[5-(3-methoxybenzyl)-3-methyl-6-oxopyridazin-1(6H)-yl]butanamide], the “Ca2+ mobilization FPR2 efficacy” value on FPR2 [1] was found to be 95%. In addition, the “Ca2+ mobilization FPR1 efficacy” value on FPR1 [2] came to 95%. Besides, in the experiment on human neutrophils, the “Ca2+ mobilization hPMN efficacy” value amounted to 145%.

`CCCCC[C@H](O)/C=C/C=C\C=C\C=C\[C@@H](O)[C@@H](O)CCCC(=O)O` [LXA4, lipoxin A4]: the EC50 with FPR2/ALX is 1 nM.

On to `COc1cccc(Cc2cc(C)nn([C@H](C)C(=O)Nc3ccc(Br)cc3)c2=O)c1` [R-(−)-5a, R-(−)-N-(4-Bromophenyl)-2-[5-(3-methoxybenzyl)-3-methyl-6-oxopyridazin-1(6H)-yl]propanamide], for which the “Ca2+ mobilization hPMN efficacy” value with human neutrophils was found to be 110%.

For the molecule `CCC[C@H](C(=O)Nc1ccc(Br)cc1)n1nc(C)cc(Cc2cccc(OC)c2)c1=O` [R-(−)-5c, R-(−)-N-(4-Bromophenyl)-2-[5-(3-methoxybenzyl)-3-methyl-6-oxopyridazin-1(6H)-yl]pentanamide], the “β-Arrestin recruitment FPR1 efficacy” value on FPR1 [3] is 120%. For the same molecule, the “Ca2+ mobilization FPR2 efficacy” value on FPR2 [1] was 120%. Also, the “β-Arrestin recruitment FPR2 efficacy” value on FPR2 [4] (CHO-K1 FPR2 cells, % of response induced by 5 nM WKYMVm) came to 100%. In addition, the “Ca2+ mobilization FPR1 efficacy” value at FPR1 [2] was found to be 85%. In the experiment on human neutrophils, the “Ca2+ mobilization hPMN efficacy” value is reported as 145%.

As to `COc1cccc(Cc2cc(C)nn([C@@H](C)C(=O)Nc3ccc(Br)cc3)c2=O)c1` [S-(+)-5a, S-(+)-N-(4-Bromophenyl)-2-[5-(3-methoxybenzyl)-3-methyl-6-oxopyridazin-1(6H)-yl]propanamide], the “Ca2+ mobilization hPMN efficacy” value with human neutrophils is recorded as 65%.

For the molecule `CSCC[C@H](NC=O)C(=O)N[C@@H](CC(C)C)C(=O)N[C@@H](Cc1ccccc1)C(=O)O` [fMLF, N-formyl-methionine-leucine-phenylalanine, reference compound], on FPR2 [4] (FPR2 CHO-K1 cells), the “β-Arrestin recruitment FPR2 (in words)” value is reported as “no recruitment”.
